“Also recorded” adds a separate entry of the source. Read-outs that look alike come from different tables or passages of the source.
Legend:
USSR H1N1 virus [1] = experiment: microbe, parasite or virus in culture; assay type: cell-based, influenza A virus
USSR H1N1 virus [2] = experiment: microbe, parasite or virus in culture; assay type: cell-based, influenza A virus; remark: listed apart in the source
pdm H1N1 virus = assay type: cell-based, influenza A virus
USSR H1N1 virus [3] = assay type: cell-based, influenza A virus
USSR H1N1 virus [4] = assay type: cell-based, influenza A virus; remark: listed apart in the source
[5] = tested on: RSV (A2 strain, ATCC VR-1540); experiment: RSV production from primed HEp2 cells (immuno-detection of RSV); assay type: cell-based, human respiratory syncytial virus
Method: (§1) Spun supernatants were collected to infect HEp2 cells for 24 h for immuno-detection of RSV. TG doses used to prime HEp2 cells were non-toxic. 30 min TG treated cells were rinsed, cultured overnight and subjected to cell viability assays (CellTiter-Glo® Luminescent Cell Viability Assay kit, Promega. Results are shown in FIG. 22.
Spun supernatants from infected samples were collected to infect HEp2 cells for 24 h for immuno-detection of RSV.
In further experiments, HEp2 cells were first infected with RSV at 0.1 MOI for 24 or 48 h followed by priming with TG or DMSO control for 30 min. Fresh media were used to replace TG containing media of 24 h infected cells; and supernatants collected earlier from 48 h infected cells were used to replace TG containing media of 48 h infected cells. All samples were infected for total period 72 h. Spun supernatants were collected to infect HEp2 cells for 24 h for RSV immuno-detection. DMSO controls were based on combined control supernatants from 24 and 48 h time points.

[6] = CellTiter-Glo luminescent cell viability assay, HEp2 cells; assay type: cell-based; conditions: human, HEp-2 cells
Method: as §1

[7] = tested on: extracellular Ca^2+ influx; experiment: Fluo-8 intracellular Ca2+ monitoring assay (NPTr cells; TG also in other cell types); assay type: cell-based, pig
DDIT3, HSPA5 and HSP90B1 = assay type: cell-based, pig; conditions: NPTr cells
RIG-I, OAS1 and PKR = assay type: cell-based, pig
viral NP and M1 protein = assay type: cell-based, influenza A virus; conditions: 0.5 μM TG (NPTr, myoblasts) or 0.005 μM TG (NHBE) 30 min, USSR H1N1, 24 h
NHBE cells = conditions: TG concentrations used for priming
influenza A virus = conditions: MDCK cells, 0.001 μM TG over 48 h of infection; cited from earlier work
in vitro [8] = conditions: human
in vitro [9] = conditions: pig
viral M-gene = assay type: cell-based, influenza A virus; conditions: NPTr cells

CC1=C2CC[C@@H](C)[C@H]2[C@H]2[C@@H](CC1)C2(C)C [(+)-ledene]
progeny virus output (USSR H1N1 virus [1]): dramatic reduction in progeny virus output; also recorded: reduced progeny virus output
USSR H1N1 virus production (USSR H1N1 virus [2]): reduced USSR H1N1 virus production like that of TG

C/C=C(/C)C(=O)O[C@H]1C(C)=C2[C@H]([C@@H]1OC(=O)CCCCCCC)[C@@](C)(OC(C)=O)C[C@H](OC(=O)CCC)[C@@]1(O)[C@H]2OC(=O)[C@@]1(C)O [TG, thapsigargin]
virus output (USSR H1N1 virus [1]): marked reduction in virus output
IC50 (USSR H1N1 virus [1]; Influenza A virus, H1N1, NHBE, read-out: USSR virus inhibitory concentration [IC50]): 0.00391 µM
progeny virus output (USSR H1N1 virus [1]; NHBE cells, 5 nM TG for 30 min): dramatic reduction in progeny virus output
selectivity index (CC50/IC50) (USSR H1N1 virus [1]; NHBE cells, USSR H1N1): 8572.89
duration of the antiviral state (USSR H1N1 virus [2]): at least 24 h
virus output (USSR H1N1 virus [2]): marked reduction in virus output
IC50 (USSR H1N1 virus [2]; Influenza A virus, H1N1, read-out: IC50 (50% reduction of progeny virus)): 0.00712 µM
virus reduction (USSR H1N1 virus [2]; NPTr cells pre-primed with 0.1 μM TG for 30 min): 82%
virus reduction (USSR H1N1 virus [2]; NPTr cells pre-primed with 0.5 μM TG for 30 min): 93%
selectivity index (CC50/IC50) (USSR H1N1 virus [2]; NPTr cells, USSR H1N1): 7952.21
virus production, TG before vs after an initial infection period of 6 h (pdm H1N1 virus; NPTr (0.5 μM, pdm H1N1), NHBE (0.01 μM, USSR H1N1), myoblasts (0.5 μM, USSR H1N1), 30 min): comparable reduction in virus production
duration of the antiviral state (USSR H1N1 virus [3]): at least 24 h
duration of the antiviral state (USSR H1N1 virus [4]): at least 24 h
virus output (USSR H1N1 virus [4]): marked reduction in virus output
duration of sustained anti-viral effect on RSV after priming ([5]; HEp2 cells, 30 min priming): over 48 h
RSV production, priming during infection ([5]; HEp2 cells, TG 30 min at 48 h post-infection): rapidly effective in blocking virus production
RSV production ([5]; HEp2 cells, TG at non-toxic levels 30 min before infection, RSV 0.1 MOI 3 days): blocks RSV production
selectivity index ([5]; HEp-2 cells, 3 d infection period): 1346.499
IC50 ([5]; human respiratory syncytial virus, 72 h, HEp-2 cells, 3 d infection period): 0.0668 µM
CC50 [6]: 90 µM
Ca^2+ influx ([7]; brief TG exposure (10 min), primary porcine myoblasts, PTECs and NHBE cells, dependent on extracellular Ca^2+): modest Ca^2+ influx
expression of ER stress associated genes (DDIT3, HSPA5 and HSP90B1) (DDIT3, HSPA5 and HSP90B1; TG at non-toxic levels, porcine myoblasts and NHBE cells, dose-dependent): consistently elevated ER stress associated genes
expression of type I IFN associated genes (RIG-I, OAS1) in response to infection (RIG-I, OAS1 and PKR; TG priming before or during infection, different cell types): consistently increased the expression of type I IFN associated genes
viral NP and M1 protein (viral NP and M1 protein): no or only small reduction in viral NP and M1 protein
cytotoxic effect on cell viability (ATP production, caspase 3/7 activity) (NHBE cells): no cytotoxic effect on cell viability
cytotoxic effect on cell viability (ATP production, caspase 3/7 activity) (NPTr cells; NPTr cells, TG concentrations used for priming): no cytotoxic effect on cell viability
progeny influenza virus output (influenza A virus): increase progeny influenza virus output
CC50 (in vitro [8]): 33.5 µM
CC50 (in vitro [9]): 56.6 µM

C=C1C(=O)O[C@@H]2[C@H]3C(C)=CC(=O)C3=C(C)CC[C@@H]12 [dehydroleucodine]
progeny virus output (USSR H1N1 virus [1]): reduced progeny virus output

C[C@@H]1CC[C@H]2[C@@H](C)C(=O)O[C@@H]3O[C@@]4(C)CC[C@@H]1[C@]32OO4 [artemisinin, reference compound]
USSR H1N1 virus production (USSR H1N1 virus [2]): reduced USSR H1N1 virus production like that of TG
progeny viral output (USSR H1N1 virus [2]): reduces progeny viral output
progeny viral output (pdm H1N1 virus): reduces progeny viral output
viral M-gene expression (viral M-gene; artemisinin 0.1 μM and 1.0 μM): without significant alteration in viral M-gene expression

Cc1nnsc1C(=O)Nc1ccc(-n2nc(C(F)(F)F)cc2C(F)(F)F)cc1 [BTP2, reference compound]
progeny virus release (USSR H1N1 virus [2]): small increase in progeny virus release

CC1=C2[C@H](/C=C(\C)C(=O)O)CC[C@@H](C)[C@H]2CC1 [valerenic acid]
USSR H1N1 virus production (USSR H1N1 virus [2]): reduced USSR H1N1 virus production like that of TG

CC(=O)C1=C(O)[C@@H]2[C@H]3c4c[nH]c5cccc(c45)C[C@H]3C(C)(C)N2C1=O [CPA, Cyclopiazonic acid]
concentration from which Ca^2+ influx was detected [7]: ≥ 10 µM
reduction in ATP production (NPTr cells; 5 μM CPA 30 min, 24 h incubation): 8.3%

COc1ccc(OC)c(-c2ccc(NC(=O)c3ccncc3F)cc2)c1 [Synta66, reference compound]
progeny virus release (USSR H1N1 virus [2]): small increase in progeny virus release

Tunicamycin [reference compound]
virus production (USSR H1N1 virus [2]): only slightly reduced virus production
virus production relative to correspondingly infected TG primed cells (USSR H1N1 virus [2]; NPTr cells, USSR H1N1, tunicamycin primed vs TG 0.5 μM): 7.5 times
virus production relative to correspondingly infected TG primed cells (pdm H1N1 virus; NPTr cells, pdm H1N1, tunicamycin primed vs TG 0.5 μM): 2.8 times
Ca^2+ influx ([7]; tunicamycin at non-toxic doses): did not induce Ca^2+ influx
induction of ER stress associated genes, higher than by TG (DDIT3, HSPA5 and HSP90B1; tunicamycin 1.0 μg/ml vs TG 0.5 μM): 3 to 8.2 fold
expression of type I IFN associated genes (RIG-I, OAS1 and PKR) in response to infection (RIG-I, OAS1 and PKR; NPTr cells, tunicamycin primed): little change in the expression of type I IFN associated genes
viral M-gene expression (viral M-gene; tunicamycin primed): without reduction in viral M-gene expression
cell viability (NPTr cells; NPTr cells, tunicamycin 30 min, non-toxic doses): did not affect cell viability

dehydroleucodine
USSR H1N1 virus production (USSR H1N1 virus [2]): reduced USSR H1N1 virus production like that of TG

From patent publication US20210145795A1 (priority 2018, published 2021)
